Reference: patent US20070066616A1, “Inhibitors for extracellular signal-regulated kinase docking domains and uses therefor” (priority 2005, published 2007)
Entries after “also recorded” stand apart in the source; their conditions may differ.

Assays:
ERK2 = target: T1, ERK2 (Mus musculus, UniProt P63085); test: Fluorescence titration (quenching of intrinsic ERK2 fluorescence); type: binding
T1 construct: (His)x6; made in house; host or cells: bacteria
Method: (§1) Experiments measure the changes in the intrinsic ERK2 fluorescence due to the presence of aromatic amino acids, with the indole group of tryptophan being the major fluorophore with absorption and emission maxima around 280 and 340 nanometers (nm), respectively. Fluorescence spectra were recorded with a Luminescence Spectrometer LS50 (Perkin Elmer, Boston, Mass.). For all experiments, ERK2 protein was diluted into 20 mM Tris-HCl, pH 7.5. Titrations were performed by increasing the test compound concentration while maintaining the ERK2 protein concentration at 3 μM.
The excitation wavelength was 295 nm and fluorescence was monitored from 300 to 500 nm. All reported fluorescence intensities are relative values and are not corrected for wavelength variations in detector response. Dissociation constants, KD, were determined using reciprocal plots, 1/ν vs 1/[I], where ν represents the percent occupied sites calculated assuming fluorescence quenching to be directly proportion to the percentage of occupied binding sites, [I] represents the concentration of the inhibitor compound and the slope of the curve equals the KD (48-49).
ERK2 contains three tryptophans, which have intrinsic fluorescence. Fluorescence quenching of ERK2 by the test compounds is indicative of binding interactions and potential protein conformational changes.

ERK2 T157A = target: T2, ERK2 T157A (Mus musculus, UniProt P63085, T157A); test: Fluorescence titration with ERK2 point mutant T157A (ED domain); type: binding; details: fluorescence quenching
T2 construct: (His)x6; made in house; host or cells: bacteria (as described for ERK2 in general; not repeated for the mutant)
Method: as §1, with “Direct binding interactions between ERK2 and the biologically active compounds is determined using fluorescence spectroscopy (47). Experiments” for “Experiments”
(§2) Unphosphorylated and phosphorylated ERK2 typically are incubated with […] of the biologically active compounds and the fluorescence intensity is measured. If necessary, higher inhibitor concentrations are used to saturate fluorescence quenching. The excitation wavelength was 295 nm and fluorescence was monitored from 300 to 500 nm. All reported fluorescence intensities are relative values and are not corrected for wavelength variations in detector response. […] Because the test compounds contain aromatic structures, the emission spectra of the active compounds in the absence of ERK2 is be determined. […]

ERK2 D316N = target: T3, ERK2 D316N (Mus musculus, UniProt P63085, D316N); test: Fluorescence titration with ERK2 point mutant D316N (CD domain); type: binding; details: fluorescence quenching
T3 construct: (His)x6; made in house; host or cells: bacteria (as described for ERK2 in general; not repeated for the mutant)
Method: as §1, with “Direct binding interactions between ERK2 and the biologically active compounds is determined using fluorescence spectroscopy (47). Experiments” for “Experiments”
as §2

[1] = test system: HeLa, A549, or SUM-159 cells; test: Colony formation assay, screen of test compounds (FIG. 7A); type: cell-based, human; parameters: dose or concentration left out as unconfirmed; details: FIG. 7A screen as printed
Method: HeLa, A549, or SUM-159 cells were plated at a low density of ˜200-400 cells per well in the absence or presence of putative ERK docking domain inhibitors. Cell colonies were stained with crystal violet and counted after 6-10 days. In FIG. 7A cells were grown on 10 cm plates in the absence (−) or presence of 100 mM of compound 67, 36, 68, 81, or 76. Colony formation dose response in the presence of the indicated concentrations of compound 76 or 81 for Hela cells […] (FIG. 7B), A549 cells (50 mM) (FIG. 7C), or SUM-159 cells (50 mM) (FIG. 7D).
(§3) Trypsinized cells were plated on 12 or 24 well plates at low densities (200-400 cells per well) in the absence (DMSO only) or presence of test compounds. In additional experiments, cells were first allowed to adhere to the culture dishes for 16 hours prior to treatment with test compounds. The treated cells received a single dose of the test compounds at the beginning of the experiments. The control and treated cells were grown for 8-14 days to allow the formation of colonies. Cells then were fixed for 10 minutes in 4% paraformaldehyde and stained with 0.2% crystal violet (in 20% methanol) for 1-2 minutes. Following several washes with distilled water, the colonies (containing at least 40 cells) were counted. Each individual experiment was repeated on at least 3 separate occasions.
The effects of the active compounds on cell proliferation and survival were tested using a colony formation assay.

[2] = test system: SUM-159 estrogen-receptor negative breast cancer cell line; test: Cell proliferation, SUM-159 cells; type: cell-based, human
Method: HeLa, A549, or SUM-159 cells were plated at a low density of ˜200-400 cells per well in the absence or presence of putative ERK docking domain inhibitors. Cell colonies were stained with crystal violet and counted after 6-10 days. In FIG. 7A cells were grown on 10 cm plates in the absence (−) or presence of 100 mM of compound 67, 36, 68, 81, or 76. Colony formation dose response in the presence of the indicated concentrations of compound 76 or 81 for Hela cells (100 mM) (FIG. 7B), A549 cells (50 mM) (FIG. 7C), or SUM-159 cells (50 mM) (FIG. 7D).
as §3

[3] = test system: HT1080 fibrosarcoma cells; test: Cell proliferation, HT1080 cells; type: cell-based, human; details: data not shown
Method: as §3

T1 sequence (P63085 whole entry): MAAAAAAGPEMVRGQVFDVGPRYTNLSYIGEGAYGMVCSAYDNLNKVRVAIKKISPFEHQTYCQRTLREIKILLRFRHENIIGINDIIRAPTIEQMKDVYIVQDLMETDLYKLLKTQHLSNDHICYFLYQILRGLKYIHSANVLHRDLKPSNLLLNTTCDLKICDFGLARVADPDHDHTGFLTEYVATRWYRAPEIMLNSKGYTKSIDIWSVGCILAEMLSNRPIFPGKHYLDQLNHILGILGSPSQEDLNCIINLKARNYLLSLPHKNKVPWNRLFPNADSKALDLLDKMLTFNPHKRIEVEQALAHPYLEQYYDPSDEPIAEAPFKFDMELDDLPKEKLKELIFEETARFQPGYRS
T3 sequence (P63085 whole entry D316N, the tested form may be a part): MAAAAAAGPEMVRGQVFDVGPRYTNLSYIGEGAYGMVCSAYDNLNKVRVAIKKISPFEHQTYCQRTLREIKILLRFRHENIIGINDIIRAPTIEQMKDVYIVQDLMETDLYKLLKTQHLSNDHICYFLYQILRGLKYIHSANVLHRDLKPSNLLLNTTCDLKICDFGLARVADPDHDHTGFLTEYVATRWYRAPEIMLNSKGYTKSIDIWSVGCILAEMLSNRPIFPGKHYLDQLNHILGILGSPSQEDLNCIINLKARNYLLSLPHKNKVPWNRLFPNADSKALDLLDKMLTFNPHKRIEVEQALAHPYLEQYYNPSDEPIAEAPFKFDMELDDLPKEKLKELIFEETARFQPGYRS
T2 sequence (P63085 whole entry T157A, the tested form may be a part): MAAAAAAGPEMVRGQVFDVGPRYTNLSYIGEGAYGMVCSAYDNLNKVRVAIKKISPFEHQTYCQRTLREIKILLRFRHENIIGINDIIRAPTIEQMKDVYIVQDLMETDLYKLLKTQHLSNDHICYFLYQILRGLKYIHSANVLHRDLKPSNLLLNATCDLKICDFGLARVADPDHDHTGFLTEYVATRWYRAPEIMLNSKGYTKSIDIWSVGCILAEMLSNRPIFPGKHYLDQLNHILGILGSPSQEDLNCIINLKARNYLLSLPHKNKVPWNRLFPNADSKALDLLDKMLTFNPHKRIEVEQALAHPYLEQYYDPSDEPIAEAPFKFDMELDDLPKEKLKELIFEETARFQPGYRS

CCOc1ccc(C=C2SC(=O)N(CCN)C2=O)cc1 [Compound 76]
y-intercept of reciprocal plot (indicating a single binding site) (ERK2; 1/ν vs 1/[I] plot): 1.8
ERK2 fluorescence quenching / binding (in words) (ERK2; fluorescence titration): strong quenching; also recorded: bind to directly ERK2
reduction in binding affinity compared to wild type ERK2 (ERK2 T157A): approximately 5 fold
reduction in binding affinity compared to wild type ERK2 (ERK2 D316N): approximately 5 fold
effect on colony formation / cell proliferation (in words) [1]: completely inhibited
inhibition of cell proliferation in SUM-159 (in words) [2]: inhibition of cell proliferation
inhibition of cell proliferation in HT1080 (in words) [3]: inhibition of cell proliferation
